Data as given in US4450269A, “Mono-5-substituted-3-chloro-4H-1,2,6-thiadiazin-4-one antifungal agents” (FMC Corporation, priority 1980, dated 1984).
Structures can show the parent of a compound that is named as a salt.

System: Helminthosporium oryzae
Experiment: Mycelial growth test
Details: for inhibition at 5 ppm / inhibition at 10 ppm / inhibition at 20 ppm / inhibition at 40 ppm: Bipolaris oryzae, 72 h; for inhibition at 5 ppm: read-out: Percent Fungus Growth Inhibition, HO, 5 ppm, 72 hours; for inhibition at 10 ppm: read-out: Percent Fungus Growth Inhibition, HO, 10 ppm, 72 hours; for inhibition at 20 ppm: read-out: Percent Fungus Growth Inhibition, HO, 20 ppm, 72 hours; for inhibition at 40 ppm: read-out: Percent Fungus Growth Inhibition, HO, 40 ppm, 72 hours; for Percent Fungus Growth Inhibition: HO, 72 hours, hydrochloride

SMILES	inhibition at 5 ppm [%]	inhibition at 10 ppm [%]	inhibition at 20 ppm [%]	inhibition at 40 ppm [%]	Percent Fungus Growth Inhibition (5 ppm) [%]	Percent Fungus Growth Inhibition (10 ppm) [%]	Percent Fungus Growth Inhibition (20 ppm) [%]	Percent Fungus Growth Inhibition (40 ppm) [%]
O=c1c(Cl)nsnc1Oc1cccc(C(F)(F)F)c1 [Compound 44, 3-chloro-5-[(3-trifluoromethyl)phenoxy]-4H--1,2,6-thiadiazin-4-one]	100	100	100	100				
C[S+]([O-])c1ccc(Oc2nsnc(Cl)c2=O)cc1 (centres unmarked) [Compound 40, 3-chloro-5-[(4-methylsulfinyl)phenoxy]-4H-1,2,6,-thiadiazin-4-one]	40	60	87	100				
Cc1ccc(Oc2nsnc(Cl)c2=O)c(C)c1 [Compound 23, 3-chloro-5-(2,4-dimethylphenoxy)-4H--1,2,6-thiadiazin-4-one]	100	100	100	100				
CSc1ccc(Oc2nsnc(Cl)c2=O)cc1 [Compound 39, 3-chloro-5-[(4-methylthio)phenoxy]-4H-1,2,6,-thiadiazin-4-one]	73	87	100	80				
CC(=O)Nc1cccc(Oc2nsnc(Cl)c2=O)c1 [Compound 42, 3-[(3-N--acetylamino)-phenoxy]-5-chloro-4H--1,2,6-thiadiazin-4-one]	23	38	100	100				
COc1cc(Cl)cc(Oc2nsnc(Cl)c2=O)c1 [Compound 52, 3-chloro-5-[(3-chloro-5-methoxy)phenoxy]-4H--1,2,6-thiadiazin-4-one]	100	89	100	100				
N#Cc1ccc(Oc2nsnc(Cl)c2=O)cc1 [Compound 10, 3-chloro-5-(4-cyanophenoxy)-4H--1,2,6-thiadiazin-4-one]	57	52	100	100				
O=c1c(Cl)nsnc1Oc1ccccc1Br [Compound 34, 3-chloro-5-(2-bromophenoxy)-4H-1,2,6,-thiadiazin-4-one]	74	74	100	100				
Cc1cc(Oc2nsnc(Cl)c2=O)cc(C)c1Cl [Compound 59, 3-chloro-5-[(4-chloro-3,5-dimethyl)phenoxy]-4H--1,2,6-thiadiazin-4-one]	100	100	100	100				
Cc1cc(C)cc(Oc2nsnc(Cl)c2=O)c1 [Compound 25, 3-chloro-5-(3,5-dimethylphenoxy)-4H--1,2,6-thiadiazin-4-one]	79	100	100	100				
O=c1c(Cl)nsnc1Oc1c(Cl)c(Cl)c(Cl)c(Cl)c1Cl [Compound 31, 3-chloro-5-(pentachlorophenoxy)-4H--1,2,6-thiadiazine-4-one]	57	86	57	100				
Nc1ccc(Oc2nsnc(Cl)c2=O)cc1 [Compound 27, 5-(4-aminophenoxy)-3-chloro-4H--1,2,6-thiadiazine-4-one hydrochloride]					0	21	43	57
COc1cc(Oc2nsnc(Cl)c2=O)cc(OC)c1C(C)=O [Compound 61, 3-[(4-acetyl-3,5-dimethoxy)-phenoxy]-5-chloro-4H--1,2,6-thiadiazin-4-one]	13	33	100	100				
O=c1c(Cl)nsnc1Oc1cccc2ccccc12 [Compound 32, 3-chloro-5(1-naphthoxy)-4H-1,2,6-thiadiazin-4-one]	100	63	100	100				
Cc1ccc(Oc2nsnc(Cl)c2=O)cc1 [Compound 3, 3-chloro-5-(4-methylphenoxy)-4H--1,2,6-thiadiazin-4-one]	55	64	100	100				
O=c1c(Cl)nsnc1Oc1c(Cl)cc(Cl)cc1Cl [Compound 30, 3-chloro-5-(2,4,6-trichlorophenoxy)-4H--1,2,6-thiadiazin-4-one]	59	100	100	100				
O=c1c(Cl)nsnc1Oc1ccc(Cl)c(Cl)c1 [Compound 16, 3-chloro-5-(3,4-dichlorophenoxy)-4H--1,2,6-thiadiazin-4-one]	64	55	55	82				
CC(C)(C)c1ccc(Oc2nsnc(Cl)c2=O)cc1 [Compound 4, 3-chloro-5-(4-tert-butylphnoxy)-4H--1,2,6-thiadiazin-4-one]	0	0	24	33				
COc1ccc(Cl)c(Oc2nsnc(Cl)c2=O)c1 [Compound 51, 3-chloro-5-[(2-chloro-5-methoxy)phenoxy]-4H--1,2,6-thiadiazin-4-one]	78	100	100	100				
COc1ccc(Oc2nsnc(Cl)c2=O)cc1 [Compound 5, 3-chloro-5-(4-methoxyphenoxy)4H--1,2,6-thiadiazin-4-one]	50	64	73	100				
O=c1c(Cl)nsnc1Oc1ccccc1Cl [Compound 14, 3-chloro-5-(2-chlorophenoxy)-4H--1,2,6-thiadiazin-4-one]	71	71	100	100				
CC(=O)Nc1ccccc1Oc1nsnc(Cl)c1=O [Compound 43, 3-[(2-acetylamino)-phenoxy]-5-chloro-4H--1,2,6-thiadiazin-4-one]	61	70	65	91				
O=c1c(Cl)nsnc1Oc1c(Cl)cccc1Cl [Compound 18, 3-chloro-5-(2,6-dichlorophenoxy)-4H--1,2,6-thiadiazin-4-one]	86	86	100	100				
O=C(O)Cc1ccccc1Oc1nsnc(Cl)c1=O [Compound 45, 3-(2-carboxymethylphenoxy)-5-chloro-4H--1,2,6-thiadiazin-4-one]	0	0	63	100				
O=c1c(Cl)nsnc1Oc1cccc(Cl)c1 [Compound 13, 3-chloro-5-(3-chlorophenoxy)-4H--1,2,6-thiadiazin-4-one]	71	86	76	81				
O=C(O)c1ccc(Oc2nsnc(Cl)c2=O)cc1 [Compound 50, 3-(4-carboxyphenoxy)-5-chloro-4H--1,2,6-thiadiazin-4-one]	75	38	100	100				
CC(=O)Nc1ccc(Oc2nsnc(Cl)c2=O)cc1 [Compound 8, 5-(4-acetylaminophenoxy)-3-chloro-4H--1,2,6-thiadiazin-4-one]	24	33	0	81				
Cc1cc(Cl)c(Oc2nsnc(Cl)c2=O)cc1C [Compound 58, 3-chloro-5-[(2-chloro-4,5-dimethyl)phenoxy]-4H--1,2,6-thiadiazin-4-one]	54	54	69	69				
N#CCc1ccc(Oc2nsnc(Cl)c2=O)cc1 [Compound 46, 3-chloro-5-[(4-cyanomethyl)-phenoxy]4H--1,2,6-thiadiazin-4-one]	67	89	100	100				
